According to the NIST ThermoML archive (doi:10.1016/j.tca.2006.10.025):
± gives the expanded uncertainty stated by the source.

What was measured:
[1] = molar heat capacity at constant pressure; xn = mol fraction of the nth substance listed; details: 303.15 K, 101 kPa, Liquid, Small sample (50 mg) DSC
[2] = excess molar enthalpy (molar enthalpy of mixing); xn = mol fraction of the nth substance listed; details: 303.15 K, 101 kPa, Liquid, Flow calorimetry
[3] = molar heat capacity at constant pressure; details: 101.33 kPa, Liquid, Small sample (50 mg) DSC
[4] = 303.15 K; 101.33 kPa; Liquid; Vibrating tube method

C[S+](C)[O-] [dimethyl sulfoxide] + CCCO
molar heat capacity at constant pressure ([1]; x1 = 0.0514): 146.2 ± 2.3 J/K/mol
molar heat capacity at constant pressure ([1]; x1 = 0.1127): 144 ± 2.2 J/K/mol
molar heat capacity at constant pressure ([1]; x1 = 0.2114): 141.8 ± 2.2 J/K/mol
molar heat capacity at constant pressure ([1]; x1 = 0.3163): 142.6 ± 2.2 J/K/mol
molar heat capacity at constant pressure ([1]; x1 = 0.418): 139.9 ± 2.2 J/K/mol
molar heat capacity at constant pressure ([1]; x1 = 0.5029): 140.6 ± 2.2 J/K/mol
molar heat capacity at constant pressure ([1]; x1 = 0.6216): 140.7 ± 2.2 J/K/mol
molar heat capacity at constant pressure ([1]; x1 = 0.7068): 141.6 ± 2.2 J/K/mol
molar heat capacity at constant pressure ([1]; x1 = 0.7975): 144.2 ± 2.2 J/K/mol
molar heat capacity at constant pressure ([1]; x1 = 0.8537): 145.6 ± 2.3 J/K/mol
molar heat capacity at constant pressure ([1]; x1 = 0.8994): 146.5 ± 2.3 J/K/mol
molar heat capacity at constant pressure ([1]; x1 = 0.9429): 147.6 ± 2.3 J/K/mol
excess molar enthalpy ([2]; x1 = 0.0421): 0.0449 ± 0.0012 kcal/mol
excess molar enthalpy ([2]; x1 = 0.0808): 0.0803 ± 0.00143 kcal/mol
excess molar enthalpy ([2]; x1 = 0.1165): 0.109 ± 0.00167 kcal/mol
excess molar enthalpy ([2]; x1 = 0.1495): 0.134 ± 0.00191 kcal/mol
excess molar enthalpy ([2]; x1 = 0.2086): 0.163 ± 0.00215 kcal/mol
excess molar enthalpy ([2]; x1 = 0.2601): 0.184 ± 0.00239 kcal/mol
excess molar enthalpy ([2]; x1 = 0.3452): 0.204 ± 0.00263 kcal/mol
excess molar enthalpy ([2]; x1 = 0.4127): 0.21 ± 0.00263 kcal/mol
excess molar enthalpy ([2]; x1 = 0.5133): 0.205 ± 0.00263 kcal/mol
excess molar enthalpy ([2]; x1 = 0.6128): 0.189 ± 0.00239 kcal/mol
excess molar enthalpy ([2]; x1 = 0.6783): 0.171 ± 0.00215 kcal/mol
excess molar enthalpy ([2]; x1 = 0.7598): 0.136 ± 0.00191 kcal/mol
excess molar enthalpy ([2]; x1 = 0.8084): 0.118 ± 0.00167 kcal/mol
excess molar enthalpy ([2]; x1 = 0.8634): 0.0884 ± 0.0012 kcal/mol
excess molar enthalpy ([2]; x1 = 0.894): 0.0722 ± 0.0012 kcal/mol
excess molar enthalpy ([2]; x1 = 0.9268): 0.0521 ± 0.000956 kcal/mol
excess molar enthalpy ([2]; x1 = 0.962): 0.0282 ± 0.000717 kcal/mol

CCCCCCO [hexan-1-ol]
molar heat capacity at constant pressure ([3]; 288.15 K): 231.6 ± 3.6 J/K/mol
molar heat capacity at constant pressure ([3]; 293.15 K): 237.5 ± 3.7 J/K/mol
molar heat capacity at constant pressure ([3]; 298.15 K): 241.3 ± 3.7 J/K/mol
molar heat capacity at constant pressure ([3]; 303.15 K): 246 ± 3.8 J/K/mol
molar heat capacity at constant pressure ([3]; 308.15 K): 251 ± 3.9 J/K/mol
molar heat capacity at constant pressure ([3]; 313.15 K): 256.2 ± 4 J/K/mol
molar heat capacity at constant pressure ([3]; 318.15 K): 262.5 ± 4.1 J/K/mol
molar heat capacity at constant pressure ([3]; 323.15 K): 268.9 ± 4.2 J/K/mol
mass density [4]: 811.39 ± 0.31 kg/m3

C[S+](C)[O-] [dimethyl sulfoxide] + CCCCO
molar heat capacity at constant pressure ([1]; x1 = 0.0874): 175.2 ± 2.7 J/K/mol
molar heat capacity at constant pressure ([1]; x1 = 0.1288): 172.3 ± 2.7 J/K/mol
molar heat capacity at constant pressure ([1]; x1 = 0.2324): 167 ± 2.6 J/K/mol
molar heat capacity at constant pressure ([1]; x1 = 0.364): 161.2 ± 2.5 J/K/mol
molar heat capacity at constant pressure ([1]; x1 = 0.4541): 158 ± 2.4 J/K/mol
molar heat capacity at constant pressure ([1]; x1 = 0.5775): 155.4 ± 2.4 J/K/mol
molar heat capacity at constant pressure ([1]; x1 = 0.6568): 152.7 ± 2.4 J/K/mol
molar heat capacity at constant pressure ([1]; x1 = 0.7207): 151.6 ± 2.3 J/K/mol
molar heat capacity at constant pressure ([1]; x1 = 0.7577): 150.8 ± 2.3 J/K/mol
molar heat capacity at constant pressure ([1]; x1 = 0.8537): 150.3 ± 2.3 J/K/mol
molar heat capacity at constant pressure ([1]; x1 = 0.919): 150 ± 2.3 J/K/mol
molar heat capacity at constant pressure ([1]; x1 = 0.9542): 151.5 ± 2.3 J/K/mol
excess molar enthalpy ([2]; x1 = 0.051): 0.0715 ± 0.00143 kcal/mol
excess molar enthalpy ([2]; x1 = 0.097): 0.124 ± 0.00191 kcal/mol
excess molar enthalpy ([2]; x1 = 0.1385): 0.164 ± 0.00215 kcal/mol
excess molar enthalpy ([2]; x1 = 0.1769): 0.189 ± 0.00239 kcal/mol
excess molar enthalpy ([2]; x1 = 0.2438): 0.221 ± 0.00287 kcal/mol
excess molar enthalpy ([2]; x1 = 0.3007): 0.236 ± 0.00311 kcal/mol
excess molar enthalpy ([2]; x1 = 0.3921): 0.255 ± 0.00335 kcal/mol
excess molar enthalpy ([2]; x1 = 0.4622): 0.254 ± 0.00311 kcal/mol
excess molar enthalpy ([2]; x1 = 0.5633): 0.245 ± 0.00311 kcal/mol
excess molar enthalpy ([2]; x1 = 0.6594): 0.223 ± 0.00287 kcal/mol
excess molar enthalpy ([2]; x1 = 0.7207): 0.201 ± 0.00263 kcal/mol
excess molar enthalpy ([2]; x1 = 0.7947): 0.171 ± 0.00215 kcal/mol
excess molar enthalpy ([2]; x1 = 0.8377): 0.144 ± 0.00191 kcal/mol
excess molar enthalpy ([2]; x1 = 0.8856): 0.112 ± 0.00167 kcal/mol
excess molar enthalpy ([2]; x1 = 0.9117): 0.0901 ± 0.00143 kcal/mol
excess molar enthalpy ([2]; x1 = 0.9393): 0.0652 ± 0.00143 kcal/mol
excess molar enthalpy ([2]; x1 = 0.9687): 0.0356 ± 0.0012 kcal/mol

CCCO [propan-1-ol]
molar heat capacity at constant pressure ([3]; 288.15 K): 139 ± 2.2 J/K/mol
molar heat capacity at constant pressure ([3]; 293.15 K): 142.3 ± 2.2 J/K/mol
molar heat capacity at constant pressure ([3]; 298.15 K): 144.9 ± 2.2 J/K/mol
molar heat capacity at constant pressure ([3]; 303.15 K): 148.3 ± 2.3 J/K/mol
molar heat capacity at constant pressure ([3]; 308.15 K): 151 ± 2.3 J/K/mol
molar heat capacity at constant pressure ([3]; 313.15 K): 153.7 ± 2.4 J/K/mol
molar heat capacity at constant pressure ([3]; 318.15 K): 157.1 ± 2.4 J/K/mol
molar heat capacity at constant pressure ([3]; 323.15 K): 160.1 ± 2.5 J/K/mol
mass density [4]: 795.48 ± 0.15 kg/m3
